# Test results reported in patent US20140162942A1, “INHIBITION OF CYP3A DRUG METABOLISM” (priority 2010, published 2014).
# Where two headings read alike, the source gives them in different places.
# Assays:
# CYP1A2 = target: T1, CYP1A2 (Homo sapiens, UniProt P05177); assay: CYP1A2 inhibition, phenacetin O-deethylation in human liver microsomes; format: in vitro ADME; settings: for Potential for Time-Dep. Inhibition: comparison with and without 30-minute pre-incubation; for inhibition at 5 min, 100 µM: human, pH 7.4, probe phenacetin (O-deethylation), 60 μM
# T1 construct: Pooled human liver microsomes (from sixteen individuals) were used as the source of enzymes; tissue XenoTech, LLC; host or cells: human liver microsomes, pool of sixteen donors
# T1 sequence (P05177 1-516): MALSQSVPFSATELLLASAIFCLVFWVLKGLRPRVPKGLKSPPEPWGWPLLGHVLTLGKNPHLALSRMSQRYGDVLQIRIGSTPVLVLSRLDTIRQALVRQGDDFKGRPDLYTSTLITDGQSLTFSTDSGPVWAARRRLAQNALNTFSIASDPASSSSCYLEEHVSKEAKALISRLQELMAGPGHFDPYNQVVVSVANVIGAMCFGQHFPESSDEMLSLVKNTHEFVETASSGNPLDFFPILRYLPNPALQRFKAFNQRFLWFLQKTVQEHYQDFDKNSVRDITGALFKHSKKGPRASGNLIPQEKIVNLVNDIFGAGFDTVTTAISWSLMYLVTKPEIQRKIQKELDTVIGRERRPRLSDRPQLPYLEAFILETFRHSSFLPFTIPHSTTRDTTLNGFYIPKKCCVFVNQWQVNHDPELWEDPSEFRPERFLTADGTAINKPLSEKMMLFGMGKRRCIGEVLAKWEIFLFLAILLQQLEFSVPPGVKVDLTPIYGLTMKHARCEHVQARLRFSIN
# Protocol: The basis for many of the following incubation conditions is described in the following references: Madan, et al., 2002,^(1) Huang, 2004,^(3) Ogilvie, et al., 2006,^(6) Pearce, et al., 1996,^(7) Tucker, et al., 2001,^(4) and Walsky and Obach, 2004.^(5) In general, incubations were conducted at approximately 37° C. in 400-μL incubation mixtures (target pH 7.4) containing high purity water, potassium phosphate buffer (50 mM), MgCl2 (3 mM), EDTA (1 mM), an NADPH-generating system [always the mixture of the following: NADP (1 mM), glucose-6-phosphate (5 mM), glucose-6-phosphate dehydrogenase (1 Unit/mL)], and marker substrate at the final concentrations indicated. Pooled human liver microsomes (from sixteen individuals) were used as the source of enzymes (Section 1.3.1.2). The concentrations of marker substrates were based on the Km and Vmax data that were determined previously (data not shown).
# Due to the possibility that boceprevir may bind to microsomal protein or lipids, an attempt was made to design these experiments such that, in as many cases as possible, the microsomal protein, incubation time, and phosphate buffer concentration were 0.1 mg/mL, 5 minutes and 50 mM, respectively, for assays performed with human liver microsomes (Table 1). […] Since it is not imperative that the concentration of marker substrates be exactly equal to Km, the marker substrate concentrations were rounded up or down, as applicable, to simplify the experimental design (data not shown). […] Thus, the final incubation concentration of phenacetin was 60 μM (Table 1).
# The ability of boceprevir to inhibit the CYP enzymes listed in Section 1.2.1 was investigated with a pool of sixteen individual human liver microsomal samples at the concentrations indicated in Table 1. Aliquots of the stock and/or working solutions of boceprevir were manually added to buffer mixtures containing the components described in Section 1.3.21. Incubation mixtures were prepared in bulk to obviate the need for directly pipetting very small volumes (i.e., 1 μL or less). Incubations containing no boceprevir (0 μM) contained the vehicle used to dissolve boceprevir (i.e., 1% methanol).
# The Tecan liquid handling system conducted all remaining incubation steps, with the exception of the centrifugation. Aliquots of the buffer mixtures were then automatically added to 96-well plates at the appropriate locations in duplicate. Aliquots of a substrate working solution were added to the 96-well plates, prior to initiating reactions, to give the final concentrations indicated in Table 1. Reactions were initiated with the addition of an aliquot of an NADPH-generating system. Reactions were automatically terminated at approximately 5 minutes, by the addition of the appropriate internal standard (Table 5) and stop reagent; acetonitrile. Precipitated protein was removed by centrifugation (920 g for 10 minutes at 10° C.). Standards and quality control samples were similarly prepared with the addition of authentic metabolite standards.
# To examine its ability to act as a time-dependent inhibitor, boceprevir (at the same concentrations used to evaluate direct inhibition) was pre-incubated at 37±1° C., in duplicate, with human liver microsomes and an NADPH-generating system for approximately 30 minutes. This pre-incubation allowed for the generation of intermediates that could inhibit human CYP enzymes. The pre-incubations were initiated with the addition of an aliquot of an NADPH-generating system. […] Reactions were automatically terminated, at approximately 5 minutes, by the addition of the appropriate internal standard (Table 5) and stop reagent; acetonitrile. Precipitated protein was removed by centrifugation (920 g for 10 minutes at 10° C.). Incubations containing no boceprevir (0 μM) and incubations that contained boceprevir but were not pre-incubated, served as negative controls.
# [1] = Qualitative visual solubility in the test system; format: physicochemical; settings: 10 μL of 10 mM methanol stock in 990 μL buffer with human liver microsomes, pH 7.4
# Protocol: A stock solution of boceprevir (target concentration of 10 mM) in methanol was prepared and solubility testing was conducted to qualitatively assess boceprevir solubility in the test system. An aliquot (10 μL) of the highest stock boceprevir solution (10 mM in methanol) was added to a 990-μL mixture (target pH 7.4) containing high purity water, potassium phosphate buffer (50 mM), MgCl2 (3 mM), EDTA (1 mM), and human liver microsomes (0.0125 and 0.1 mg/mL) at the final concentrations listed (for a total volume of 1000 μt). […] The stock solution (10 mM boceprevir for IC50 determinations), along with dilutions to working solutions (ranging from 0.01 to 3.0 mM boceprevir) were prepared fresh each day experiments were performed. […] These solutions were prepared fresh on the day the Ki determination experiment was performed. Additionally, a stock concentration of 0.3 mM was used in the NADPH dependence/effects of dilution, as well as the MIC formation experiment.
structure (smiles),measurement,setting,value
"CC(C)(C)NC(=O)NC(C(=O)N1CC2C([C@H]1C(=O)NC(CC1CCC1)C(=O)C(N)=O)C2(C)C)C(C)(C)C (stereo partly drawn) [Boceprevir, (1R,2S,5S)—N-[(2Ξ)-4-amino-1-cyclobutyl-3,4-dioxobutan-2-yl]-3-{(2S)-2-[(tert-butylcarbamoyl)amino]-3,3-dimethylbutanoyl}-6,6-dimethyl-3-azabicyclo[3.1.0]hexane-2-carboxamide]",Potential for Time-Dep. Inhibition,CYP1A2,little or no
same,Potential for Time-Dep. Inhibition,CYP1A2; listed as boceprevir,no discernable time-dependent inhibition
same,IC50,"CYP1A2; direct inhibition, zero-minute pre-incubation, pooled human liver microsomes",> 100 µM
same,"inhibition at 5 min, 100 µM","CYP1A2; pooled human liver microsomes, direct inhibition, zero-minute pre-incubation, read-out: Max. Inhib. at 100 μM",22%
same,"inhibition at 5 min, 100 µM","CYP1A2; pooled human liver microsomes, time-dependent inhibition, 30-minute pre-incubation, read-out: Maximum Inhibition at 100 μM",9.8%
same,IC50,"CYP1A2; time-dependent inhibition, 30-minute pre-incubation",> 100 µM
same,Solubility in the test system (qualitative visual comparison),[1],soluble
